The source of these data is patent publication US9012497B2, “Cyclohexyl carbamate compounds as active anti-cellulite ingredients” (Symrise AG, priority 2010, dated 2015).

The IC50 is the midpoint of a concentration-inhibition curve. What is called EC50 is the concentration that produces a half-maximal response.

In one assay the test system is 3T3 cells. Nature of the assay: ATP assay, inhibition of proliferation. It is filed as cell-based. As to conditions: Mus musculus, NIH3T3, 48 h, non-cytotoxic dilutions, mean values of at least 2 independent tests. The procedure: 3T3 cells (mouse […] fibroblasts) were seeded in 96-well plates. After 24 h cultivation at 37° C. and 5% CO2 in DMEM (Dulbecco's Modified Eagle Medium), cells were treated with test substances for another 48 h. […] ATP content in the cells is measured by
The inhibition of proliferation was calculated by:
[formula] wherein RLU test substance=relative luminescent units of the wells with test substance and with cells RLU control=relative luminescent units of the wells without test substance, but with cells RLU control without cells=relative luminescent units of the wells without test substance and without cells
The IC50 is calculated from the proliferation inhibition [%] in a series of non-cytotoxic dilutions of tested samples. This is the concentration at which the proliferation is 50% inhibited.

Another assay addresses T1, lipoprotein lipase (LPL) (Mus musculus, UniProt P11152).
T1 construct: endogenous in cells; host or cells: differentiated 3T3-L1 cells (mouse); heparin-released supernatant
T1 sequence (P11152 28-474): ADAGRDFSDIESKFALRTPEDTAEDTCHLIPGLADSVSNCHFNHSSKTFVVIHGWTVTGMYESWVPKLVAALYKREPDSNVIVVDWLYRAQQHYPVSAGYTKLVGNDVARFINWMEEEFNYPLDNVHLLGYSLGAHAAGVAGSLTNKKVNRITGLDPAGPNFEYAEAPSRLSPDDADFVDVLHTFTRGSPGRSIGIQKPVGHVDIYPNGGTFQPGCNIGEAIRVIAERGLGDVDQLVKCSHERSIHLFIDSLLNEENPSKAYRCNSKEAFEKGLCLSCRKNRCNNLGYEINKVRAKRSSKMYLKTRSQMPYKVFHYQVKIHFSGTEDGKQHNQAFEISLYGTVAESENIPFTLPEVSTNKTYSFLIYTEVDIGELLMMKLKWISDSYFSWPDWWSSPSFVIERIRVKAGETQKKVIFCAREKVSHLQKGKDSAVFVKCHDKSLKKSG
Nature of the assay: Inhibition of LPL (lipogenesis assay), MUF oleate hydrolysis. Format: biochemical. The note with it: LPL obtained from differentiated 3T3-L1 cells; mean values of at least 2 independent tests. An excerpt:
(§1) Lipogenesis is perceived as the storage of triglycerides in adipocytes. The inhibition of this storage can take place by means of the inhibition of the activity of extracellular lipoprotein lipase (LPL) in that the hydrolysis of extracellular triglycerides and therefore the absorption of free fatty acids by adipocytes are reduced. As a preliminary test, the inhibition of pancreatic lipase (PL) is investigated.
The results of the inhibition of the PL are used as a preliminary test and are confirmed on LPL. To obtain LPL, 3T3-L1 cells (mouse embryonic fibroblast-like adipocyte cell line) are seeded in a 6-well plate with collagen I-coating in a concentration of 3×10^5 cells/well. The cultivation and differentiation of the cells takes place analogously to the details in Example 2 (adipogenesis assay). During the differentiation LPL is increasingly expressed. The LPL is present in a membrane-bound state and is released by one hour incubation with heparin solution at 2-8° C. to the supernatant of the cells.
The LPL thus obtained, in the presence of test substances in different use concentrations, has methylumbelliferyl oleate (MUF oleate) added as the substrate. Fluorescent methylumbelliferyl (MUF) is produced by hydrolysis of the MUF oleate by LPL and is quantified. The inhibition of the hydrolysis of the MUF oleate is a measure of the inhibition of the activity of the LPL and therefore the lipogenesis.
[formula] wherein MUF test substance=MUF concentration of the wells with test substance and with LPL MUF control=MUF concentration of the wells without test substance, but with LPL MUF control without LPL=MUF concentration of the wells without test substance and without LPL
The IC50 is calculated from the inhibition of the LPL [%] in a series of dilutions of tested samples. This is the concentration at which the activity of the LPL and therefore the lipogenesis is 50% inhibited.

The target in another assay is T2, pancreatic lipase (PL) (Sus scrofa, UniProt P00591).
T2 construct: purchased Sigma-Aldrich
T2 sequence (P00591 1-450): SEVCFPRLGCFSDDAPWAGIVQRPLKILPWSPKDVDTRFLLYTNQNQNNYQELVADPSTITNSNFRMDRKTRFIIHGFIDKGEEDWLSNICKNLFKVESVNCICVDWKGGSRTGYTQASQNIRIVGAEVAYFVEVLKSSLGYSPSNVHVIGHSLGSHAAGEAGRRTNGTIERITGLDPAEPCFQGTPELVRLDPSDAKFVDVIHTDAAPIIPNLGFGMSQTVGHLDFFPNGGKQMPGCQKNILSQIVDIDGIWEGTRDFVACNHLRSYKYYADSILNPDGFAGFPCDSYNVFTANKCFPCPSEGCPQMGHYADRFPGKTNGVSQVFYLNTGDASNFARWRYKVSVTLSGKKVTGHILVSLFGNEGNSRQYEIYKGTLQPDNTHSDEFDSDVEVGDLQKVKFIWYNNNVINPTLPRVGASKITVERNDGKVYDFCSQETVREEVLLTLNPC
The assay can be described thus: Inhibition of PL, MUF oleate hydrolysis. Format: biochemical. As to conditions: mean values of at least 2 independent tests.
Excerpt: as §1
PL (Sigma-Aldrich), in the presence of test substances in different use concentrations has methylumbelliferyl oleate (MUF oleate) added as a substrate. Fluorescent methylumelliferon (MUF), is produced by hydrolysis of the MUF oleate by PL and is quantified. The inhibition of the hydrolysis of the MUF oleate is a measure of the inhibition of activity of the PL.
[formula] wherein MUF test substance=MUF concentration of the wells with test substance and with PL MUF control=MUF concentration of the wells without test substance, but with PL MUF control without PL=MUF concentration of the wells without test substance and without PL
The IC50 is calculated from the inhibition of the PL [%] in a series of dilutions of tested samples. This is the concentration, at which the activity of the PL is 50% inhibited.

For assay [1], the system named is 3T3-L1 cells. The assay can be described thus: Lipolysis assay, in vitro on 3T3-L1 cells, free glycerol release. The note with it: Mus musculus; differentiated 3T3-L1 cells, about 20 hours of incubation; mean values from at least 2 independent tests; read-out: Stimulation of lipolysis EC50. Format: cell-based. The procedure:
3T3-L1 cells (mouse embryonic fibroblast-like adipocyte cell line) are seeded in a 48-well plate with collagen I-coating in a concentration of 3×10^4 cells/well. The cultivation and differentiation of the cells takes place analogously to the details in Example 2 (adipogenesis assay).
Various concentrations of the test substances are applied to the cells in DMEM, with bovine serum albumen added. After about 20 hours of incubation, the quantification of free glycerol in the supernatant of the cells takes place, which is released by the cells after hydrolysis of triglycerides in the cells and is a measure of the lipolysis of the cells. The quantification of the free glycerol is carried out based on an enzymatic method with a free glycerol reagent.
(§2) The stimulation of the lipolysis in the presence of test substances is calculated according to the following equation:
[formula] wherein A test substance=absorption of the wells with test substance and with cells A test substance without cells=absorption of the wells with test substance without cells (absorption control) A control=absorption of the wells without test substance, but with cells A control without cells=absorption of the wells without test substance and without cells
The EC50 is calculated from the lipolysis stimulation [%] in a series of dilutions of tested samples. This is the concentration at which the lipolysis is 50% stimulated.

Assay [2] has as its system 3T3-L1 cells. Nature of the assay: Adipogenesis assay (in vitro), Nile Red lipid staining. Format: cell-based. As to conditions: Mus musculus, mean values of at least 2 independent tests, read-out: Adipogenesis inhibition IC50. The method, then:
3T3-L1 cells (mouse embryonic fibroblast-like adipocyte cell line) are seeded in a 48-well plate with collagen I-coating in a concentration of 3×10^4 cells/well. After 72 h cultivation at 37° C. and 5% CO2 in DMEM (Dulbecco's Modified Eagle Medium), enriched with 10% calf serum, various concentrations of the test substances in DMEM, enriched with 10% foetal calf serum and to which are added 1 μg/ml insulin, 0.25 μM dexamethasone and 0.5 mM IBMX (3-isobutyl-1-methylxanthine), are added and incubated for a further 48 h. A media change takes place, in that DMEM, enriched with 10% foetal calf serum and with 1 μg/ml insulin added, are applied. After renewed cultivation for 48 h, a further media change takes place, in which DMEM, enriched with 10% foetal calf serum, is applied.
After a further incubation for 72 h, the intracellularly stored lipids are quantified as a measure for the differentiation of the cells by measuring the fluorescence after staining of the lipids with the fluorescent dye Nile Red.
The inhibition of the adipogenesis in the presence of the test substances is calculated according to the following equation:
[formula] wherein RFU test substance=relative fluorescent units of the wells with test substance and with cells RFU control=relative fluorescent units of the wells without test substance, but with cells RFU control without cells=relative fluorescent units of the wells without test substance and without cells The IC50 is calculated from the adipogenesis inhibition [%] in a series of dilutions of tested samples. This is the concentration at which the adipogenesis is 50% inhibited.

For assay [3], the system named is ex vivo pig skin model including subcutis fat layer. The assay can be described thus: Lipolysis assay, ex vivo pig skin model, free glycerol release. It is filed as cell-based. As to conditions: conc. 0.1% in cosmetic test preparation, topical on ex vivo pig skin, 24 hours, versus placebo.
Excerpt: Full thickness pig skin patches (pig skin model including subcutis fat layer as described in EP 1 939 279) are excised from the dorsal part of young pig slaughtered for meat. The ex vivo pig skin models have a size of 7×3 mm (diameter×height). They are placed on a titanium grid dipped in culture medium. On top of the skin samples formulations are applied. In parallel to a cosmetic test preparation containing one or more compounds of formula (I) a placebo preparation without any compound of formula (I) is applied as reference (blank).
After 24 hours of incubation, the quantification of free glycerol in the medium surrounding the pig skin models was performed. The glycerol is released by the cells after hydrolysis of triglycerides in the cells of the adipose tissue and is a measure of the lipolysis of the pig skin models. The quantification of the free glycerol is carried out based on an enzymatic method with a free glycerol reagent.
Cosmetic Test Preparation:
Phases A and B are heated to 70° C. separately. Pemulen TR1 as well as Ultrez-21 are dispersed in phase B when heated to 70° C. Phase B/C is added to phase A by mixing with an Ultra Turrax, followed by emulsifying. Phase D is slowly added to phase A/B/C using a paddle mixer and a pH 5.5-6 is adjusted. The formulation is cooled down while mixing with a paddle mixer. Phase E is prepared by dissolving one or more compounds of formula (I) in Hydrolite-5. Subsequently, phase E is added to the mixture of phase A-D.
as §2
[formula] wherein A test substance=absorption of the wells with medium of ex vivo skin models, on which the formulation containing the test substance was applied A placebo=absorption of the wells with medium of ex vivo skin models, on which the placebo without test substance was applied

In the case of `CCCCNC(=O)OC1CC(C)CC(C)(C)C1` (centres unmarked) [BIO1616, Butyl-carbamic acid 3,3,5-trimethyl-cyclohexyl ester], the IC50 in the assay on 3T3 cells was determined as 220 µM; against lipoprotein lipase (LPL), 1020 µM; at pancreatic lipase (PL) it was 900 µM; with 3T3-L1 cells [2], 120 µM. Also, the EC50 in the assay with 3T3-L1 cells [1] is 450 µM.
For `CCc1ccc(NC(=O)OC2CC(C)CC(C)C2)cc1` (centres unmarked) [BIO1823, (4-Ethyl-phenyl)-carbamic acid 3,5-dimethyl-cyclohexyl ester], the Stimulation of lipolysis in assay [3] was found to be 28%. The 50% inhibitory concentration (IC50) amounted to 1390 µM with 3T3 cells and 62 µM in the assay with 3T3-L1 cells [2]. Also, the EC50 with 3T3-L1 cells [1] came out at 460 µM.
As to `CCC(C)NC(=O)OC1CC(C)CC(C)(C)C1` (centres unmarked) [BIO1844, sec-Butyl-carbamic acid 3,3,5-trimethyl-cyclohexyl ester], the IC50 came to 478 µM in the assay with 3T3 cells, 720 µM on lipoprotein lipase (LPL), 350 µM against pancreatic lipase (PL) and 89 µM with 3T3-L1 cells [2]. Also, the half-maximal effective concentration (EC50) with 3T3-L1 cells [1] was found to be 210 µM.
